The values below come from patent US20240415808A1, “Dosage Regimen for Fexuprazan Injection Composition” (Daewoong Pharmaceutical Co., Ltd., priority 2021, published 2024).

This assay has as its system indomethacin-induced bleeding gastric ulcer. As to the kind of experiment: indomethacin-induced bleeding gastric ulcer model using male rats. Type of assay: in vivo, rat. Particulars: 1 mg/kg single dose tail vein, mean ± SD. The method, then:
In order to evaluate the efficacy of fexuprazan against bleeding gastric ulcers, an indomethacin-induced bleeding gastric ulcer model using male rats was used.
Specifically, the previously prepared 1-(5-(2,4-difluorophenyl)-1-((3-fluorophenyl)sulfonyl)-4-methoxy-1H-pyrrol-3-yl)-N-methylmethanamine (hereinafter referred to as ‘fexuprazan’) hydrochloride was dissolved in a solution containing 30 wt. % of polyethylene glycol (Polyethylene Glycol 400) polymer in physiological saline. The concentration was adjusted so that 0, 0.1, 0.5, 1, 2 mg/kg based on fexuprazan weight could be administered to each test animal in a liquid volume of 1 mL/kg, and then each test animal was administered through the tail vein as a single dose. In addition, 1 mg/kg of esomeprazole magnesium trihydrate, which is a positive control, based on esomeprazole weight was administered as a single dose through the tail vein in test animals. After 30 minutes, 80 mg/kg of indomethacin was orally administered as a single dose to each test animal to induce gastric bleeding and ulceration. An autopsy was performed 5 hours after administration of indomethacin, and the stomach was removed. Then, the ulcer index (%) was measured using an image program (Leica Application Suite V4), and gastric hemorrhage and erosion state were evaluated through histopathological examination.

Regarding `COc1ccc2nc([S@@+]([O-])Cc3ncc(C)c(OC)c3C)[nH]c2c1` [Esomeprazole, esomeprazole magnesium trihydrate, reference compound], where the note is “30 min before indomethacin 80 mg/kg oral, autopsy 5 h”, the “Ulcer index (%)” value turned out to be 6.1 ± 2.6 %. Besides, where the note is “histopathological examination”, the Gastric erosion state worked out at 2.0 ± 1.8 and the Gastric hemorrhage state was 1.3 ± 1.6^.
